Measurements: patent US10034893B2, “5, 6-D2 uridine nucleoside/tide derivatives” (priority 2013, dated 2018)

Test system: HCV 1a genotype replicon (Huh-1a7 cell line, strain H77)
Test: HCV Replicon Assay qRT-PCR, genotype 1a
Format: cell-based
Conditions: Hepatitis C virus, read-out: 1a EC50
Description: HCV replicon cell lines (kindly provided by R. Bartenschlager) isolated from colonies as described by Lohman et al. (Lohman et al. (1999) Science 285: 110-113, expressly incorporated by reference in its entirety) and used for all experiments. One of the HCV replicon cell lines (strain Conl, genotype 1b) has the nucleic acid sequence set forth in EMBL Accession No.: AJ242651, the coding sequence of which is from nucleotides 1801 to 8406. Another replicon cell line (strain H77, genotype 1a) was constructed as described by Yi et. al. (Yi et. al. (2004) Journal of Virology 78(15):7904-15). […]
EC50 values of single agent compounds were determined by HCV RNA detection using quantitative RT-PCR, according to the manufacturer's instructions, with a TAQMAN® One-Step RT-PCR Master Mix Reagents Kit (Cat#AB 4309169, Applied Biosystems) on an ABI Model 7500 thermocycler. EC50 values of combinations are similarly determined by HCV RNA detection using quantitative RT-PCR. The TAQMAN primers to use for detecting and quantifying HCV RNA obtained from Integrated DNA Technologies. HCV RNA is normalized to GAPDH RNA levels in drug-treated cells, which is detected and quantified using the Human GAPDH Endogenous Control Mix (Applied Biosystems, AB 4310884E). […] Chemical agent cytotoxicity is evaluated using an MTS assay according to the manufacturer's directions (Promega). […]

[2H]c1cn([C@@H]2O[C@H](CO[P@@](=O)(N[C@@H](C)C(=O)OC(C)C)Oc3ccccc3)C(O)C2(C)F)c(=O)[nH]c1=O (stereo partly shown) [Example 1]
EC50: 100 to 1000 nM
